Patent US11000033B2, “Ketone or oxime compound, and herbicide” (NISSAN CHEMICAL CORPORATION, priority 2014, dated 2021)

Columns and labels:
Format in all cases: in vivo
Monochoria vaginalis [1] = assay: Test Example 1: herbicidal activity, application before weed generation in submerged conditions (symbol C); settings: application herbicide amount 320 g/ha
Method in brief: (§1)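 In a flooded pot test with alluvial soil, the emulsion-formulated compound was diluted with water to a predetermined amount and applied to the floodwater immediately on the sowing day. Pots were held in a greenhouse at 25–30 °C for 3 weeks before each weed was rated.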

Setaria viridis = assay: Test Example 5: herbicidal effect by foliage application, plastic box (symbol G); settings: 320 g/ha, 3 weeks after application
Method in brief: (§2)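 Leaf-applied emulsion, water-diluted to a preset herbicide dose, on two-week-old seedlings raised in a 25° C. to 30° C. greenhouse; injury rated at 3 weeks using earlier criteria.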

beet = assay: Test Example 4: effect on crop by soil treatment (symbol f); settings: application herbicide amount 320 g/ha
Method in brief: (§3)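 Plants are raised in a greenhouse (25° C. to 30° C.) from spot-sown seed, which sits under about 1.5 cm of sterilized diluvial soil in a box shared with weed species.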

Abutilon theophrasti = assay: Test Example 4: herbicidal effect by soil treatment (symbol M); settings: application herbicide amount 320 g/ha
Method in brief: (§4)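 Seeds were sown in sterilized diluvial soil, covered with about 1.5 cm of soil, and the soil surface was sprayed with a water-diluted emulsion of the compound at a predetermined rate. Plants grew in a greenhouse at 25° C. to 30° C.; effects were scored visually 3 weeks after application.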

Avena fatua [2] = assay: Test Example 4: herbicidal effect by soil treatment (symbol I); settings: application herbicide amount 320 g/ha
Method in brief: as §4

Apera spica-venti = assay: Test Example 5: herbicidal effect by foliage application, plastic box (symbol L); settings: 320 g/ha, 3 weeks after application
Method in brief: as §2

[3] = test system: Echinochloa crus-galli var. crus-galli; assay: Test Example 4: herbicidal effect by soil treatment (symbol H); settings: application herbicide amount 320 g/ha
Method in brief: as §4

rapeseed = assay: Test Example 5: effect on crop by foliage application, plastic box (symbol g); settings: 320 g/ha, 3 weeks after application
Method in brief: (§5)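 A greenhouse held between 25° C. and 30° C. was used to grow plants sown spot-wise, beneath ~1.5 cm of soil, in boxes of sterilized diluvial soil.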

[4] = test system: Echinochloa crus-galli var. crus-galli; assay: Test Example 5: herbicidal effect by foliage application, plastic box (symbol H); settings: 320 g/ha, 3 weeks after application
Method in brief: as §2

rice = assay: Test Example 4: effect on crop by soil treatment (symbol b); settings: application herbicide amount 320 g/ha
Method in brief: as §3

[5] = test system: Echinochloa oryzacola Vasing.; assay: Test Example 1: herbicidal activity, application before weed generation in submerged conditions (symbol A); settings: application herbicide amount 320 g/ha
Method in brief: as §1

soybean = assay: Test Example 4: effect on crop by soil treatment (symbol d); settings: application herbicide amount 320 g/ha
Method in brief: as §3

Avena fatua [6] = assay: Test Example 5: herbicidal effect by foliage application, plastic box (symbol I); settings: 320 g/ha, 3 weeks after application
Method in brief: as §2

Monochoria vaginalis [7] = assay: Test Example 2: herbicidal activity, application during weed generation in submerged conditions (symbol C); settings: Table 23; application herbicide amount 320 g/ha; grade 0-5 by criteria of Test Example 1
Method in brief: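 Each pot contained alluvial soil under 4 cm of water with seeds of all three weeds sown together. Following growth at 25° C. to 30° C. to the one- to two-leaf stage, the floodwater received diluted emulsion at a predetermined amount; visual assessment followed at 3 weeks.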

corn = assay: Test Example 5: effect on crop by foliage application, plastic box (symbol c); settings: 320 g/ha, 3 weeks after application
Method in brief: as §5

CON=C(C)CC1CC(OC(=O)N2CCCC2)=C(c2c(C)cc(C)cc2OC)C1=O (stereo not drawn) [6-110]
Herbicidal effect grade, C: Monochoria vaginalis (Monochoria vaginalis [1]): 0 (Herbicidal ratio of 5% or lower (almost no effect))
G: Setaria viridis, herbicidal effect (criteria of Test Example 1) (Setaria viridis): 5 (Herbicidal ratio of 90% or more (almost completely withered))
Effect on crop grade, f: beet (beet): 0 (Herbicidal ratio of 5% or lower (almost no effect))
Herbicidal effect grade, M: Abutilon theophrasti (Abutilon theophrasti): 0 (Herbicidal ratio of 5% or lower (almost no effect))
Herbicidal effect grade, I: Avena fatua (Avena fatua [2]): 0 (Herbicidal ratio of 5% or lower (almost no effect))
L: Apera spica-venti, herbicidal effect (criteria of Test Example 1) (Apera spica-venti): 5 (Herbicidal ratio of 90% or more (almost completely withered))
Herbicidal effect grade, H: Echinochloa crus-galli var. crus-galli [3]: 5 (Herbicidal ratio of 90% or more (almost completely withered))
g: rapeseed, effect on crop (criteria of Test Example 1) (rapeseed): 4 (Herbicidal ratio of 70% or higher and lower than 90%)
H: Echinochloa crus-galli var. crus-galli, herbicidal effect (criteria of Test Example 1) [4]: 5 (Herbicidal ratio of 90% or more (almost completely withered))
Effect on crop grade, b: directly sowed rice plant (rice): 0 (Herbicidal ratio of 5% or lower (almost no effect))
Herbicidal effect grade, A: Echinochloa oryzacola Vasing. [5]: 5 (Herbicidal ratio of 90% or more (almost completely withered))
Effect on crop grade, d: soybean (soybean): 0 (Herbicidal ratio of 5% or lower (almost no effect))
I: Avena fatua, herbicidal effect (criteria of Test Example 1) (Avena fatua [6]): 5 (Herbicidal ratio of 90% or more (almost completely withered))
Herbicidal effect grade, C: Monochoria vaginalis (Monochoria vaginalis [7]): 0 (Herbicidal ratio of 5% or lower (almost no effect))
c: corn, effect on crop (criteria of Test Example 1) (corn): 5 (Herbicidal ratio of 90% or more (almost completely withered))

CON=C(C)CC1CC(O)=C(c2c(C)cc(-c3ccc(F)c(Cl)c3)cc2C)C1=O (stereo not drawn) [6-085]
Herbicidal effect grade, C: Monochoria vaginalis (Monochoria vaginalis [1]): 0 (Herbicidal ratio of 5% or lower (almost no effect))
G: Setaria viridis, herbicidal effect (criteria of Test Example 1) (Setaria viridis): 5 (Herbicidal ratio of 90% or more (almost completely withered))
Effect on crop grade, f: beet (beet): 3 (Herbicidal ratio of 40% or higher and lower than 70%)
Herbicidal effect grade, M: Abutilon theophrasti (Abutilon theophrasti): 4 (Herbicidal ratio of 70% or higher and lower than 90%)
Herbicidal effect grade, I: Avena fatua (Avena fatua [2]): 5 (Herbicidal ratio of 90% or more (almost completely withered))
L: Apera spica-venti, herbicidal effect (criteria of Test Example 1) (Apera spica-venti): 5 (Herbicidal ratio of 90% or more (almost completely withered))
Herbicidal effect grade, H: Echinochloa crus-galli var. crus-galli [3]: 5 (Herbicidal ratio of 90% or more (almost completely withered))
g: rapeseed, effect on crop (criteria of Test Example 1) (rapeseed): 5 (Herbicidal ratio of 90% or more (almost completely withered))
H: Echinochloa crus-galli var. crus-galli, herbicidal effect (criteria of Test Example 1) [4]: 5 (Herbicidal ratio of 90% or more (almost completely withered))
Effect on crop grade, b: directly sowed rice plant (rice): 1 (Herbicidal ratio of 5% or higher and lower than 20%)
Herbicidal effect grade, A: Echinochloa oryzacola Vasing. [5]: 5 (Herbicidal ratio of 90% or more (almost completely withered))
Effect on crop grade, d: soybean (soybean): 5 (Herbicidal ratio of 90% or more (almost completely withered))
I: Avena fatua, herbicidal effect (criteria of Test Example 1) (Avena fatua [6]): 5 (Herbicidal ratio of 90% or more (almost completely withered))
Herbicidal effect grade, C: Monochoria vaginalis (Monochoria vaginalis [7]): 1 (Herbicidal ratio of 5% or higher and lower than 20%)
c: corn, effect on crop (criteria of Test Example 1) (corn): 3 (Herbicidal ratio of 40% or higher and lower than 70%)

CON=C(C)CC1CC(OC(=O)N(C)C)=C(c2c(C)cc(C)cc2OC)C1=O (stereo not drawn) [6-109]
Herbicidal effect grade, C: Monochoria vaginalis (Monochoria vaginalis [1]): 3 (Herbicidal ratio of 40% or higher and lower than 70%)
G: Setaria viridis, herbicidal effect (criteria of Test Example 1) (Setaria viridis): 5 (Herbicidal ratio of 90% or more (almost completely withered))
Effect on crop grade, f: beet (beet): 0 (Herbicidal ratio of 5% or lower (almost no effect))
Herbicidal effect grade, M: Abutilon theophrasti (Abutilon theophrasti): 0 (Herbicidal ratio of 5% or lower (almost no effect))
Herbicidal effect grade, I: Avena fatua (Avena fatua [2]): 0 (Herbicidal ratio of 5% or lower (almost no effect))
L: Apera spica-venti, herbicidal effect (criteria of Test Example 1) (Apera spica-venti): 5 (Herbicidal ratio of 90% or more (almost completely withered))
Herbicidal effect grade, H: Echinochloa crus-galli var. crus-galli [3]: 5 (Herbicidal ratio of 90% or more (almost completely withered))
g: rapeseed, effect on crop (criteria of Test Example 1) (rapeseed): 4 (Herbicidal ratio of 70% or higher and lower than 90%)
H: Echinochloa crus-galli var. crus-galli, herbicidal effect (criteria of Test Example 1) [4]: 5 (Herbicidal ratio of 90% or more (almost completely withered))
Effect on crop grade, b: directly sowed rice plant (rice): 1 (Herbicidal ratio of 5% or higher and lower than 20%)
Herbicidal effect grade, A: Echinochloa oryzacola Vasing. [5]: 5 (Herbicidal ratio of 90% or more (almost completely withered))
Effect on crop grade, d: soybean (soybean): 0 (Herbicidal ratio of 5% or lower (almost no effect))
I: Avena fatua, herbicidal effect (criteria of Test Example 1) (Avena fatua [6]): 5 (Herbicidal ratio of 90% or more (almost completely withered))
Herbicidal effect grade, C: Monochoria vaginalis (Monochoria vaginalis [7]): 2 (Herbicidal ratio of 20% or higher and lower than 40%)
c: corn, effect on crop (criteria of Test Example 1) (corn): 5 (Herbicidal ratio of 90% or more (almost completely withered))

CON=C(C)CC1CC(O)=C(c2c(F)cc(C)cc2OC)C1=O (stereo not drawn) [6-108]
Herbicidal effect grade, C: Monochoria vaginalis (Monochoria vaginalis [1]): 0 (Herbicidal ratio of 5% or lower (almost no effect))
G: Setaria viridis, herbicidal effect (criteria of Test Example 1) (Setaria viridis): 5 (Herbicidal ratio of 90% or more (almost completely withered))
Effect on crop grade, f: beet (beet): 0 (Herbicidal ratio of 5% or lower (almost no effect))
Herbicidal effect grade, M: Abutilon theophrasti (Abutilon theophrasti): 5 (Herbicidal ratio of 90% or more (almost completely withered))
Herbicidal effect grade, I: Avena fatua (Avena fatua [2]): 3 (Herbicidal ratio of 40% or higher and lower than 70%)
L: Apera spica-venti, herbicidal effect (criteria of Test Example 1) (Apera spica-venti): 5 (Herbicidal ratio of 90% or more (almost completely withered))
Herbicidal effect grade, H: Echinochloa crus-galli var. crus-galli [3]: 5 (Herbicidal ratio of 90% or more (almost completely withered))
g: rapeseed, effect on crop (criteria of Test Example 1) (rapeseed): 5 (Herbicidal ratio of 90% or more (almost completely withered))
H: Echinochloa crus-galli var. crus-galli, herbicidal effect (criteria of Test Example 1) [4]: 5 (Herbicidal ratio of 90% or more (almost completely withered))
Effect on crop grade, b: directly sowed rice plant (rice): 5 (Herbicidal ratio of 90% or more (almost completely withered))
Herbicidal effect grade, A: Echinochloa oryzacola Vasing. [5]: 4 (Herbicidal ratio of 70% or higher and lower than 90%)
Effect on crop grade, d: soybean (soybean): 0 (Herbicidal ratio of 5% or lower (almost no effect))
I: Avena fatua, herbicidal effect (criteria of Test Example 1) (Avena fatua [6]): 5 (Herbicidal ratio of 90% or more (almost completely withered))
Herbicidal effect grade, C: Monochoria vaginalis (Monochoria vaginalis [7]): 2 (Herbicidal ratio of 20% or higher and lower than 40%)
c: corn, effect on crop (criteria of Test Example 1) (corn): 5 (Herbicidal ratio of 90% or more (almost completely withered))
